Measured values: patent US10736906B2, “Method to enhance tissue regeneration” (CHILDREN'S MEDICAL CENTER CORPORATION, priority 2006, dated 2020)
Entries after “also recorded” stand apart in the source; their conditions may differ.

Key:
[1] = test system: adult zebrafish liver; experiment: liver regeneration and wound healing after 1/3 partial hepatectomy in adult zebrafish; assay type: in vivo
From the text: Following ⅓ partial hepatectomy, the zebrafish liver regenerates within five days to seven days.
As many molecular pathways controlling embryonic development mediate tissue homeostasis in the adult, the effects of prostaglandin signaling during liver regeneration were examined. […] Fish were revived and allowed to heal in fish water.
To test the requirement of functional prostaglandin signaling during regeneration, fish were exposed to the dual-specific cox inhibitor, indomethacin, from hour 6 to hour 18 following partial hepatectomy.
Liver Resection: Folling administration of tricaine anesthetic, ⅓ partial hepaectomy of the adult zebrafish liver was performed under brightfield imaging on a dissection microscope. An incision was made using microdissection scissors posterior to the heart on the left lateral portion of the abdomen.

[2] = test system: β-catenin; experiment: partial hepatectomy in wild-type and APCMin/+ mice (IHC, western blot, BrdU); assay type: in vivo
From the text: Here, APC mutation caused increased total and nuclear β-catenin levels, particularly in the periportal region. […] These findings were confirmed by western blot. β-catenin may cause increased cell proliferation through its target cyclin D1.
Additionally, the present invention provides the first example that the activation of wnt/β-catenin signaling can enhance the rate of liver regeneration. […] Furthermore, the regeneratice advantage is evolutionarily conserved following hepatectomy in APCMin/+ mice. (Murine liver resections were performed as described in Green & Puder, 16 J. Investigational Surgery 99-102 (2003). Thus, the present invention provides for the manipulation of the wnt/β-catenin pathway as a way to enhance liver regeneration in patients, either after liver resection or during recovery from acute liver failure induced by toxins such as acetaminophen.

[3] = test system: cKit+Sca1+ Lineage- (KSL) bone marrow cells; experiment: murine transplantation assay with purified HSCs, CFU-S12; assay type: in vivo, mice; conditions: concurrent administration with BIO; indomethacin 1 mg/kg and 2.5 mg/kg
Method: To assess whether prostaglandin levels regulate wnt activity in HSCs, murine transplantation assays were performed utilizing purified HSCs. FACS-isolated cKit+Sca1+ Lineage—(KSL) bone marrow cells were transplanted into lethally irradiated recipients.

[4] = test system: endodermal and hepatic progenitor cells; experiment: endodermal progenitors (foxA3) and liver size (lfabp) in zebrafish embryos, in situ hybridization; assay type: in vivo
From the text: To determine whether the interaction of PGE2 and wnt/β-catenin signaling is a conserved regulator of stem and progenitor cell populations in other tissues, endodermal and hepatic progenitor cells were examined during zebrafish development. […] ( 51/56), as detected by expression of liver fatty acid binding protein (lfabp). […] This finding is supported by the detection of various components of PGE2 signaling in foxA3 positive cells.
The APC mutant zebrafish to model constitutive activation of the wnt signaling pathway, was used to characterize the effects of the wnt/PG interaction in foxA3+ endodermal progenitors at 48 hpf. APC+/− embryos have enhanced foxA3 expression and an increased liver bud ( 88/93) as well as increased liver size ( 68/75) compared to wild-type siblings. […] Both cyclinD1 and cmyc were co-regulated by wnt and prostaglandin during development which may indicate that PGE2 exerts its effects on stem cells through enhanced cell cycling and proliferation.
In situ hybridization: Paraformaldehyde (PFA)-fixed embryos were processed for in situ hybridization using standard zebrafish protocols such as those found on the internet at, for example, ZFIN: The Zebrafish Model Organism Database (hosted by the Univ. Oregon, Eugene, Oreg.). The following RNA probes were used to detect alterations in endodermal and liver development: GFP, LFABP, sterol carrier protein, transferrin, foxA3, insulin, trypsin, and IFABP. Changes in expression compared to wild-type controls are reported as the # altered/# scored per genotype; a minimum of three independent experiments were conducted per analysis.

[5] = test system: wnt activity; experiment: wnt activity in TOP:dGFP wnt reporter zebrafish embryos (in situ hybridization and qPCR for GFP); assay type: in vivo; conditions: for wnt activity in the developing brain, liver and gut: developing zebrafish, TOP:dGFP
From the text: An embodiment of the present invention provides for manipulation of the genetic interaction between PGE2 and wnt/β-catenin signaling, which regulates developmental specification of stem cells and regeneration. Briefly, prostaglandin (PG) E2 is required for the formation and function of hematopoietic stem cells (HSCs) in vivo, yet its mechanism of action in these cells is not completely understood.
The following RNA probes were used to detect alterations in endodermal and liver development: GFP, LFABP, sterol carrier protein, transferrin, foxA3, insulin, trypsin, and IFABP. Changes in expression compared to wild-type controls are reported as the # altered/# scored per genotype; a minimum of three independent experiments were conducted per analysis.

[6] = test system: bone marrow; experiment: bone marrow recovery following 5-FU chemical injury in APCMin/+ mice; assay type: in vivo; conditions: 1 mg/kg every 48 hrs, after 5-FU
Method: (§1) It has been hypothesized that wnt activation regulates HSC self-renewal and repopulation. Wnt activation is also thought to be involved in carcinogenesis, however, making the concept of direct enhancement of wnt signaling problematic. Whether regulation of wnt activity by prostaglandin can effectively modulate HSC homeostasis in the adult, was determined by observing hematopoietic recovery following irradiation in the zebrafish. […] APCMin/+ mice have elevated β-catenin levels due to loss of APC function in the destruction complex.

[7] = test system: liver tumor; experiment: zebrafish DMBA liver tumor model, ultrasound biomicroscopy; assay type: in vivo
From the text: Although zebrafish are a valuable vertebrate model to study carcinogenesis, noninvasive imaging remains challenging because adult fish are not transparent. Tumors can be readily detected in vivo, however, using high-resolution microscopic ultrasound. This technique facilitates tissue perfusion calculations, cellular aspirates, tumor progression analysis, and responses to treatment. Ultrasound biomicroscopy allows longitudinal studies of tumor development and real-time assessment of therapeutic effects in the zebrafish model. The visualization techniques employed herein are described by Goessling et al., 4(7) Nature Methods 551-53 (2007). […] Tumor occurrence was monitored over about five months. Tumors were identified by ultrasound biomicroscopy. The cancerous fish were then treated with indomethacin for twelve hours over night, every three days for one month, and the tumors visualized as described. Goessling et al., 2007. […] After one month of drug treatment, the fish appeared healthy, but were sacrificed to confirm the presence of cancer by histology. […] In another experiment, detailed in FIG. 10B and FIG. 10C, fish were treated every week for tumor prevention. Here, treatment with the carcinogen led to liver tumors in wild-type fish, and to twice as many tumors in APC+/− mutant fish.

[8] = test system: stem and progenitor cell population; experiment: hematopoietic recovery following irradiation in the adult zebrafish (kidney marrow); assay type: in vivo; conditions: ten days post irradiation; wnt8 induction 24-36 hours post irradiation
Method: as §1

Structure (SMILES): COc1ccc2c(c1)c(CC(=O)O)c(C)n2C(=O)c1ccc(Cl)cc1 [indomethacin]
- liver architecture ([1]; at resection margin and throughout un-injured portions): altered architecture of the liver
- liver regrowth compared to controls ([1]; exposure following resection (indomethacin hour 6 to 18; day 1 and day 3)): significantly reduced liver re-growth
- complete regeneration of the liver ([1]; indomethacin: by day 5 post-resection): failed to regenerate fully
- wound healing at the incision site ([1]; skin wounds following partial hepatectomy): severely inhibited; also recorded: prohibited wound healing
- regenerative index ([1]; treatment 6 to 18 hours post resection, wild-type and APC mutant fish): significantly diminished
- β-catenin, immunohistochemistry post resection ([1]; wild-type and APC+/− fish): decrease in overall β-catenin levels
- β-catenin levels ([2]; 2.5 mg/kg bid sq, both genotypes): decreased β-catenin levels significantly
- Cyclin D1 levels and cell proliferation (BrdU incorporation) ([2]; APCMin/+ mice): markedly diminished
- P-GSK3b (serine 9), IHC ([2]; wild-type and APC+/− mice, confirmed by western blot): decreased amounts
- effect on BIO-enhanced CFU-S number [3]: blocks this effect; also recorded: diminished CFU-S number back to baseline levels
- decrease in liver size (# altered/# scored) ([4]; APC+/− embryos): 61/67
- decrease in foxA3 positive progenitor cells (# altered/# scored) ([4]; APC+/− embryos, 48 hpf): 33/39
- decreased foxA3 expression (# altered/# scored) ([4]; wild-type embryos): 67/71
- smaller liver, lfabp expression (# altered/# scored) ([4]; wild-type embryos, 72 h.p.f.): 51/56
- liver size / liver development compared to controls ([4]; zebrafish embryos, by 72 hours post-fertilization): marked reduction in liver size
- wnt activity in the developing brain, liver and gut [5]: diminished wnt activity
- wnt activity in the developing brain, liver and gut ([5]; listed as indomethicin): virtual absence of wnt signaling
- wnt activity abolished in the AGM and GFP expression markedly decreased globally (# altered/# scored) ([5]; indomethacin 10 μM): 72/87
- effect on the proliferative advantage (bone marrow recovery) in APCMin/+ mice [6]: markedly diminished the proliferative advantage
- solid portion of the tumor, ultrasound ([7]; after six treatments): decreased in size
- tumor size, ultrasound ([7]; after ten treatments): shrunk substantially
- tumor size, ultrasound ([7]; after three treatments (12 h overnight every three days)): tumor size increased
- liver tumor formation (prevention) ([7]; weekly treatment, wild-type and especially APC+/− fish): decreased tumor formation
- effect on wnt8-induced 2.5-fold increase in stem and progenitor cell population [8]: significantly diminished
